The text below walks through data of PMC9506420, “Biological Evaluation of 3-Azaspiro[Bicyclo[3.1.0]Hexane-2,5′-Pyrimidines] as Potential Antitumor Agents” (International Journal of Molecular Sciences, 2022).

One series has as its system CT26 tumor. The series can be described thus: In vivo evaluation in CT26 tumor-bearing Balb/C mice. To be noted: for death of experimental animals by the end of the observation period: n = 7 per group, single i.p. 300 μL of 3 μM suspension, 10 days, control group one animal; for autopsy finding in the abdominal cavity (agglomerates of injected material): autopsy at end of experiment, diameter of up to 1 mm. The method, then:
In vivo studies were performed using CT26 tumor-bearing Balb/C mice. After the average tumor volume reached approximately 270 mm^3, the mice were injected intraperitoneally with 300 μL of 3 μM suspension of compounds 4d, 4e, 4f, and 4i in 10% aq. DMSO solution. Mice in the control group were injected with 300 μL of 10% aq. DMSO solution. Observation of the animals continued for 10 days, with the measurement of tumor sizes two times a week.
All animals were bred and maintained in specific pathogen-free facilities in accordance with the Rus-LASA and FELASA guidelines. This study complied with all relevant ethical regulations for animal testing and research and received ethical approval from the Almazov National Medical Research Centre (protocol No. 21-02, dated 26 March 2021). Animal experiments were carried out in accordance with the principles of humane treatment of animals, regulated by requirements of Council of Europe 2006; European Convention for the Protection of Vertebrate Animals Used for Experimental and other Scientific Purposes (ETS No. 123); the European Parliament and the Council of the European Union 2010; Directive 2010/63/EU of the European Parliament and of the Council of 22 September 2010 on the Protection of Animals Used for Scientific Purposes; and FELASA guidelines. Male, 20–22 g, SPF Balb/C mice (Pushchino, Moscow region, Russian Federation) were used throughout. Animals were maintained at 22 ± 2 °C and relative humidity 50 ± 10% with 12 h light/dark cycle. All mice received water and food ad libitum. Animals were checked daily by the veterinarian, and their state of health was monitored continuously. Animal body weight was recorded every three days (GX-600 Precision Balance, A&D Weighing, San Jose, CA, USA).
The greatest transverse diameter (width) and the greatest longitudinal diameter (length) of a tumor were determined with a Vernier mechanical caliper. The tumor volume (V) was calculated using the following formula: V = length × width 2/2000 [50]. Mice were inoculated subcutaneously in the right flank, with 2 × 10^6 CT26 cells per mouse in PBS (Corning, Glendale, AZ, USA). Ten days later, when the average tumor volume reached […], the mice were randomized into groups (n = 7 per group). An amount of 300 μL of 3 μM suspension of compounds 4d, 4e, 4f, and 4i in 10% aq. DMSO solution was injected intraperitoneally at once. The control group was injected with 10% aq. DMSO solution only. The tumor volumes were monitored as described above, along with body weight. Mice were euthanized when the subcutaneous tumor reached a volume of […].

In the next series the test system is CT26 cells. The series can be described thus: Actin cytoskeleton staining (rhodamine-phalloidin, confocal microscopy), CT26. The following applies: CT26, 5 μg/mL, 24 h; for percentage of cells with normal stress fibers (C): control 64%. In kind it is cell-based, mouse. How it is done:
(§1) Therefore, in the current study, the actin cytoskeleton structure of HeLa, CT26, and Vero cells was analyzed, after the impact of compounds 4a–i, by the presence of filopodia-like protrusions and the availability of stress fibers (Figure 14, Figure 15 and Figure 16). […] HeLa cells were more sensitive to the action of tested products, compared to CT26 and Vero cells.
(§2) Cells were seeded onto Petri dishes with cover slips at a density of 2 × 10^5 cells per dish and incubated for 24 h. After that, cells were treated with compounds 4d, 4e, 4f, 4h, and 4i (5 μg/mL) for 24 h. The medium was removed, and cells were fixed with 4% paraformaldehyde (Sigma-Aldrich, St. Louis, MO, USA), washed three times with PBS, and permeabilized with 0.3% Triton-X100 (Sigma-Aldrich, St. Louis, MO, USA). The cells were rinsed three times with PBS. Actin filaments (microfilaments) were stained at 37 °C for 15 min with rhodamine-phalloidin (Invitrogen, Carlsbad, CA, USA). The samples were rinsed three times with PBS, followed by embedding in Fluoroshield medium (Sigma-Aldrich, St. Louis, MO, USA). Cells were imaged using an Axio Observer Z1 confocal microscope (Carl Zeiss MicroImaging GmbH, Jena, Germany). In each experiment, at least 30 cells were imaged. Images were analyzed by a pathologist, blinded to the treatment mode used for each group, using ImageJ software.

The next series relates to HeLa cells. The series can be described thus: Actin cytoskeleton staining (rhodamine-phalloidin, confocal microscopy), HeLa. Format: cell-based, human. The following applies: 5 μg/mL, 24 h. How it is done: as §1, §2

The structures appear in SMILES notation.

Regarding `CCC[C@@H]1NC2(C(=O)NC(=O)NC2=O)[C@]2(c3ccccc3)[C@@H](c3ccccc3)[C@]12c1ccccc1` [Compound 4d], the “death of experimental animals by the end of the observation period” value (“death of experimental animals” below) with CT26 tumor is recorded as “No deaths”. Further, in the series on CT26 tumor (single i.p. injection), the “autopsy finding in the abdominal cavity (agglomerates of injected material)” value (“autopsy finding in the abdominal cavity” for short) was “persistent, rounded, dense agglomerates of white or yellowish-white foreign material”.

For `CSCC[C@@H]1NC2(C(=O)NC(=O)NC2=O)[C@]2(c3ccccc3)[C@@H](c3ccccc3)[C@]12c1ccccc1` [Compound 4h], the “percentage of cells with normal stress fibers (C)” value (“percentage of cells … (C)” below) in the series with CT26 cells amounted to 36%.

As to `CC(C)C[C@@H]1NC2(C(=O)NC(=O)NC2=O)[C@]2(c3ccccc3)[C@@H](c3ccccc3)[C@]12c1ccccc1` [Compound 4f], in the series with HeLa cells (control 80%), the “percentage of cells … (C)” value is 10%. Besides, the “percentage of cells with filopodia-like deformations (A)” value in the series on HeLa cells (control 91%) is reported as 35%. The “death of experimental animals” value in the series on CT26 tumor is recorded as “one”.

Take `CCCC[C@@H]1NC2(C(=O)NC(=O)NC2=O)[C@]2(c3ccccc3)[C@@H](c3ccccc3)[C@]12c1ccccc1` [Compound 4e]: the “death of experimental animals” value with CT26 tumor is “two”. Further, in the series on CT26 tumor (single i.p. injection), the “autopsy finding in the abdominal cavity” value is given as “persistent, rounded, dense agglomerates of white or yellowish-white foreign material”. Moreover, the “macroscopic signs of acute toxicity at autopsy” value in the series on CT26 tumor (single i.p. injection, autopsy of abdominal organs) is “No signs of acute intoxication”.

For the molecule `O=C1NC(=O)C2(N[C@@H](c3ccccc3)[C@@]3(c4ccccc4)[C@H](c4ccccc4)[C@@]23c2ccccc2)C(=O)N1` [Compound 4i], the “percentage of cells with filopodia-like deformations (A)” value in the series on CT26 cells (control 43%) was 38%. The “percentage of cells … (C)” value in the series on CT26 cells was 38%. For the same molecule, in the series with CT26 tumor, the “death of experimental animals” value is “three”. Further, in the series on CT26 tumor (single i.p. injection), the “autopsy finding in the abdominal cavity” value is listed as “persistent, rounded, dense agglomerates of white or yellowish-white foreign material”.
